Paper PMC11605156, “Triterpenoids from Ganoderma lucidum inhibit cytochrome P450 enzymes interfering with the metabolic process of specific clinical drugs” (Frontiers in Pharmacology, 2024)

Key:
CYP2C19 = CYP2C19 (Homo sapiens, UniProt P33261); test: CYP2C19 inhibition, S-mephenytoin probe in human liver microsomes; details: S-mephenytoin 50 μM, 30 min; for activity at 30 min: human, human liver microsomes, pH 7.4, probe S-mephenytoin 50 μM, Residual activity (%) CYP2C19, HLM 0.5 mg/mL
Description: (§1) The total volume of the in vitro metabolic incubation system is 200 μL. The probe substrate concentration in the system is shown in Supplementary Table S1. […] The reaction sample was preheated in a constant temperature mixer at 37°C. Then NADP^+ was added to the system to initiate the reaction. The reaction time is 30 min, and 100 μL acetonitrile will be added on time to quickly terminate the reaction, followed by centrifugation at 4°C and 20,000 g for 20 min. The supernatant was analyzed using liquid chromatography tandem mass spectrometry (LC-MS/MS), and the activity of CYP enzymes was evaluated by the generation of probe metabolites. The mass spectrometry information of probe substrates is shown in Supplementary Table S3.
(§2) The isolated triterpenoids (1–66) were used to establish a compounds library. The inhibitory effects of 66 triterpenoids from G. lucidum on seven subtypes of CYP enzymes (CYP1A2, 2A6, 2D6, 2B6, 2C9, 2C19, 3A4) were evaluated followed the above-mentioned experimental procedures.
(§3) Table S1. The information of probes for CYPs activity assay

CYP2A6 = target: T1, CYP2A6 (Homo sapiens, UniProt P11509); test: CYP2A6 inhibition, coumarin probe in human liver microsomes; details: for activity at 30 min: human, human liver microsomes, pH 7.4, probe coumarin 2 μM, Residual activity (%) CYP2A6, HLM 0.5 mg/mL
T1 sequence (P11509 1-494): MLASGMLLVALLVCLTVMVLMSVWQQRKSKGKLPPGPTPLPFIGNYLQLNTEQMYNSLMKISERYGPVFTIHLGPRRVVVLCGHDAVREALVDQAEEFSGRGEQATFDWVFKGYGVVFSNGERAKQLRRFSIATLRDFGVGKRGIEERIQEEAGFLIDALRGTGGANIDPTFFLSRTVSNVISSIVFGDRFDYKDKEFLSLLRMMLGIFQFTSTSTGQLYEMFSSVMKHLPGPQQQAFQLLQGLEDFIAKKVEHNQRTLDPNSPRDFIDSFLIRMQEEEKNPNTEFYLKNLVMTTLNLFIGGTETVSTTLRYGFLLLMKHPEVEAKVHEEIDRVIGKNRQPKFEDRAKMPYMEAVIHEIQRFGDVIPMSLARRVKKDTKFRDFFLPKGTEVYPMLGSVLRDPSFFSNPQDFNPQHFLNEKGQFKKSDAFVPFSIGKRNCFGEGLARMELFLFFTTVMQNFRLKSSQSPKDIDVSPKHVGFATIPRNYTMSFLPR
Description: as §1, §2, §3

CYP2D6 = CYP2D6 (Homo sapiens, UniProt P10635); test: CYP2D6 inhibition, dextromethorphan probe in human liver microsomes; details: for Residual activity (%) CYP2D6: HLM 0.5 mg/mL, dextromethorphan 5 μM, 30 min
Description: as §1, §2, §3

CYP1A2 = target: T2, CYP1A2 (Homo sapiens, UniProt P05177); test: CYP1A2 inhibition, probe/drug metabolism in human liver microsomes (LC-MS/MS); details: for Residual activity (%) CYP1A2: HLM 0.5 mg/mL
T2 sequence (P05177 1-516): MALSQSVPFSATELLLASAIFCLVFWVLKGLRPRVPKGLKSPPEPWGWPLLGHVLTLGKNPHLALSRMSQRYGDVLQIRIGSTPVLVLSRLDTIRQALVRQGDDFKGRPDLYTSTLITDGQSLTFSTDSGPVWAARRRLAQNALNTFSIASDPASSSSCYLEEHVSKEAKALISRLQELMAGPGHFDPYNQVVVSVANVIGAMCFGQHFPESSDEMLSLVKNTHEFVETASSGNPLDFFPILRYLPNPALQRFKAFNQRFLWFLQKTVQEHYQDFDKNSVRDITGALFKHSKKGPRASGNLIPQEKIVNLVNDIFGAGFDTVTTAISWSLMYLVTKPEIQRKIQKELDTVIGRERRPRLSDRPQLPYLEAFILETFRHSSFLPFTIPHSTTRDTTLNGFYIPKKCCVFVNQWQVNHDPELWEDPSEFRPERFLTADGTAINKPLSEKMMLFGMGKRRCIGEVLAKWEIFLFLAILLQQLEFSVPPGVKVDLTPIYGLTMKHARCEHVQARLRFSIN
Description: as §1, §2
(§4) For 16 clinical drugs metabolized by CYP enzymes, potential DDI studies were conducted on triterpenoids (6, 25) of G. lucidum, and IC50 values were measured.
(§5) Clinical drugs: Phenacetin, melatonin, clozapine and riluzole are metabolized by CYP1A2. Bupropion, artemisinin, efavirenz and sertraline are metabolized by CYP2B6. Diclofenac, valsartan, glimepiride and glibenclamide are metabolized by CYP2C9. Midazolam, imatinib, simvastatin and diltiazem are metabolized by CYP3A4.
as §3
(§6) Table S2. Information of clinical drugs

CYP2C9 = CYP2C9 (Homo sapiens, UniProt P11712); test: CYP2C9 inhibition, probe/drug metabolism in human liver microsomes; details: diclofenac 4 μM, 30 min; for activity at 30 min: human, human liver microsomes, pH 7.4, probe diclofenac 4 μM, Residual activity (%) CYP2C9, HLM 0.5 mg/mL
Description: as §1, §2, §4, §5, §3, §6

CYP2B6 = target: T3, CYP2B6 (Homo sapiens, UniProt P20813); test: CYP2B6 inhibition, probe/drug metabolism in human liver microsomes; details: bupropion 75 μM, 30 min; for activity at 30 min: human, human liver microsomes, pH 7.4, probe bupropion 75 μM, Residual activity (%) CYP2B6, HLM 0.5 mg/mL
T3 sequence (P20813 1-491): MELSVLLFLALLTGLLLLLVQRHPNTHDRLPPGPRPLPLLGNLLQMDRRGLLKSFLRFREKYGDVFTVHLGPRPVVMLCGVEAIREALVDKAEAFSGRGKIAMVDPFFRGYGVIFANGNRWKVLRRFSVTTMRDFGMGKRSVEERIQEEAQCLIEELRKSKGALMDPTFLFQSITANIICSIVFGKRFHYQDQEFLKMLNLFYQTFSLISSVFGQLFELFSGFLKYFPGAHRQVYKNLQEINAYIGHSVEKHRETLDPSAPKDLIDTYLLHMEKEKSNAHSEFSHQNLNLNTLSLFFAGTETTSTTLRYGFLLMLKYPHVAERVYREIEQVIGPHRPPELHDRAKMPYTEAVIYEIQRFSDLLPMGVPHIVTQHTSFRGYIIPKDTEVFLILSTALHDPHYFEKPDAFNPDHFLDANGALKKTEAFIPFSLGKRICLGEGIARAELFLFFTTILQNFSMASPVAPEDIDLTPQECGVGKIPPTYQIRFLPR
Description: as §1, §2, §4, §5, §3, §6

in vivo = details: rat
Description: SD rats (Male, weighing 220 g ± 20 g) were divided into a dichloromethane administration group and a control group with 6 rats in each group. Both groups were given probe substrate drugs by gavage. […] 200 μL blood samples were taken from the rat jugular vein at 0.167, 0.333, 0.5, 0.75, 1, 2, 3, 4, 6, 8, 10, and 12 h after the administration of the probe substrate. After precipitation of proteins by with 600 μL acetonitrile via centrifugation […] at 4°C at 3,500 rpm for 10 min. The supernatant was detected using liquid chromatography-tandem mass spectrometry (LC-MS/MS). The mass spectrometry information of the probe drug is shown in Supplementary Table S3. Animal experiments in this study were approved by the Animal Ethics Committee of the Dalian Medical University.

[1] = gavage, drug alone (control group), n = 6

Chain of CYP2C9 (P11712 whole entry): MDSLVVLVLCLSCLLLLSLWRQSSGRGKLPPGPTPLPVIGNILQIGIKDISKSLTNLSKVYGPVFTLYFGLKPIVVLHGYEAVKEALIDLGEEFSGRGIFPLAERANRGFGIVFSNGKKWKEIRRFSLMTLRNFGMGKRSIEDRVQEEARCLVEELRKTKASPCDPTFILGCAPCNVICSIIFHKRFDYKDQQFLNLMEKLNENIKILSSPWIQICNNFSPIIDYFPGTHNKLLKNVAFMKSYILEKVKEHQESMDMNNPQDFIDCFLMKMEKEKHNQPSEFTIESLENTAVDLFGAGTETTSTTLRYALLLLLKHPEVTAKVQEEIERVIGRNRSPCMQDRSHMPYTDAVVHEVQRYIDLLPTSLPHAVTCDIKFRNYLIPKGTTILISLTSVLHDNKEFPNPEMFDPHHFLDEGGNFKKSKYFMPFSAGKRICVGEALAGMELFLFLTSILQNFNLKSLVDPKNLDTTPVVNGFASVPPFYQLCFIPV
Chain of CYP2D6 (P10635 whole entry): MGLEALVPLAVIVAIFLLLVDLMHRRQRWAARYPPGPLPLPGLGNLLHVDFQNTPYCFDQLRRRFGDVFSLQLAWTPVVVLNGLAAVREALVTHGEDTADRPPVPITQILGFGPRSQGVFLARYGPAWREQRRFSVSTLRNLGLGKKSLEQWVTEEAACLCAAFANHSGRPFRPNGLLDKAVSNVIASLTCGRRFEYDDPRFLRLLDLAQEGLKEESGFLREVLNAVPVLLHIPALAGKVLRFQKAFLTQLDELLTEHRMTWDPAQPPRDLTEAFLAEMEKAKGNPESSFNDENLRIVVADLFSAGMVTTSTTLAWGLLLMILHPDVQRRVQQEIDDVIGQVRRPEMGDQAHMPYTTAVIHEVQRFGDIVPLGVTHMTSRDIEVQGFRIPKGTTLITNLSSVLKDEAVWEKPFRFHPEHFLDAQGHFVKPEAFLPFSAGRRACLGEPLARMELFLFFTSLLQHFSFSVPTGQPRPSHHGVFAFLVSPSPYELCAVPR
Chain of CYP2C19 (P33261 whole entry): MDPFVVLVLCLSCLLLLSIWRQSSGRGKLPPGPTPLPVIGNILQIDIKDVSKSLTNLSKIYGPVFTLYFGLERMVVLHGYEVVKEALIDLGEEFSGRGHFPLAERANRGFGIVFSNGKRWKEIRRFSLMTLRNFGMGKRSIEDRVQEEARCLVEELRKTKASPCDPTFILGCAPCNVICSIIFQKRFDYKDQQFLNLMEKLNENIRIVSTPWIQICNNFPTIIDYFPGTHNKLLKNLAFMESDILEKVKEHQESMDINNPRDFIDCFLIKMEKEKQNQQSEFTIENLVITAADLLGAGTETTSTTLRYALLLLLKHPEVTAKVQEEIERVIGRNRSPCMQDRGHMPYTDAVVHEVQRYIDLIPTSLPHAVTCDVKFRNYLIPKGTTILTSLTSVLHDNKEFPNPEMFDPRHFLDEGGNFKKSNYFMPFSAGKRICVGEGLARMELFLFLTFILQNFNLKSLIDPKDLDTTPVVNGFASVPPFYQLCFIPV

CC(CC(=O)CC(C)C1CC(O)C2(C)C3=C(C(=O)CC12C)C1(C)CCC(=O)C(C)(C)C1CC3=O)C(=O)O (centres unmarked) [Compound 45]
activity at 30 min (CYP2C19): 70.3 ± 4.05% | activity at 30 min (CYP2A6): 90.1 ± 2.87% | activity at 30 min (CYP2D6; human, human liver microsomes, pH 7.4, probe dextromethorphan 5 μM, Residual activity (%) CYP2D6, HLM 0.5 mg/mL): 93.7 ± 8.49% | IC50 (CYP1A2; IC50 against CYP 1A2, substrate phenacetin 40 μM, HLM): 18.2 ± 1.33 µM | activity at 30 min (CYP1A2; human, human liver microsomes, pH 7.4, probe phenacetin 40 μM, Residual activity (%) CYP1A2, HLM 0.5 mg/mL, phenacetin 40 μM, 30 min): 48.2 ± 4.71% | activity at 30 min (CYP2C9): 73.5 ± 6.44% | activity at 30 min (CYP2B6): 83 ± 3.05%

CC(CC(=O)CC(C)C1CC(=O)C2(C)C3=C(C(=O)CC12C)C1(C)CCC(O)C(C)(C)C1CC3=O)C(=O)O (centres unmarked) [Compound 54]
activity at 30 min (CYP2C19): 88.3 ± 3.63% | activity at 30 min (CYP2A6): 82.6 ± 2.79% | Residual activity (%) CYP2D6 (CYP2D6): 108.69±3.90% | Residual activity (%) CYP1A2 (CYP1A2; phenacetin 40 μM, 30 min): 47.09±3.09% | IC50 at 30 min (CYP1A2; human, human liver microsomes, pH 7.4, probe phenacetin 40 μM, IC50 against CYP 1A2, substrate phenacetin 40 μM, HLM): 24.7 ± 3.38 µM | activity at 30 min (CYP2C9): 88.45 ± 0.51% | activity at 30 min (CYP2B6): 84.1 ± 1.32%

CC(CC(=O)CC(C)C1CC(=O)C2(C)C3=C(C(=O)CC12C)C1(C)CCC(O)C(C)(C)C1CC3=O)C(=O)O (centres unmarked) [Compound 55]
Residual activity (%) CYP2C19 (CYP2C19; HLM 0.5 mg/mL): 104.32±8.04% | Residual activity (%) CYP2A6 (CYP2A6; HLM 0.5 mg/mL, coumarin 2 μM, 30 min): 74.81±0.70% | Residual activity (%) CYP2D6 (CYP2D6): 86.79±5.16% | Residual activity (%) CYP1A2 (CYP1A2; phenacetin 40 μM, 30 min): 71.10±3.67% | Residual activity (%) CYP2C9 (CYP2C9; HLM 0.5 mg/mL): 96.25±6.96% | Residual activity (%) CYP2B6 (CYP2B6; HLM 0.5 mg/mL): 77.81±6.09%

O=C(O)Cc1ccccc1Nc1c(Cl)cccc1Cl [Dic, diclofenac]
AUM (in vivo; male, SD, in vivo): 7,332.465 ± 1,560.101 h*ng/mL | Cl_F_ (in vivo; male, SD, in vivo): 4,276.363 ± 388.068 mL/h/kg | AUC(0-inf) (in vivo; male, SD, in vivo, po): 2350 ng·h/mL | AUC(0-t) (in vivo; male, SD, in vivo, po): 2270 ng·h/mL | Cmax (in vivo; male, SD, in vivo, po): 912 ± 68.1 ng/mL | Tmax (in vivo; male, SD, in vivo, po): 17.5 ± 6.12 min | Vz_F (in vivo; male, SD, in vivo, po): 12,244.920 ± 1707.693 mL/kg

Cc1ncc2n1-c1ccc(Cl)cc1C(c1ccccc1F)=NC2 [MDZ, midazolam]
AUC(0-inf) (in vivo; male, SD, in vivo, po): 2340 ng·h/mL | AUC(0-t) (in vivo; male, SD, in vivo, po): 2300 ng·h/mL | Cmax (in vivo; male, SD, in vivo, po): 1630 ng/mL | Tmax (in vivo; male, SD, in vivo, po): 40 ± 7.74 min | AUM (in vivo; [1]): 4,197.381 ± 670.735 h*ng/mL | Cl_F_ (in vivo; [1]): 4,313.217 ± 497.661 mL/h/kg | Vz_F (in vivo; [1]): 8,995.776 ± 2,395.823 mL/kg

CCOc1ccc(NC(C)=O)cc1 [PHE, Phenacetin]
AUM (in vivo; male, SD, in vivo): 692.744 ± 85.4782 ng·h/mL | Cl_F_ (in vivo; male, SD, in vivo): 14,264.696 ± 912.942 mL/h/kg | AUC(0-inf) (in vivo; male, SD, in vivo, po): 352 ± 22.6 ng·h/mL | AUC(0-t) (in vivo; male, SD, in vivo, po): 342 ± 22.6 ng·h/mL | Cmax (in vivo; male, SD, in vivo, po): 364 ± 38.1 ng/mL | Tmax (in vivo; male, SD, in vivo, po): 37.5 ± 8.22 min | Vz_F (in vivo; male, SD, in vivo, po): 31,514.554 ± 6,298.860 mL/kg
